How the values were obtained:
Type in all cases: functional
Conditions in all cases: read-out: Activity
MDA-MB-468 = experiment: Cytotoxicity against human MDA-MB-468 cells assessed as cell viability at 10 uM incubated for 48 hrs by sulforhodamine B assay relative to control
BT-549 = experiment: Cytotoxicity against human BT-549 cells assessed as cell viability at 10 uM incubated for 48 hrs by sulforhodamine B assay relative to control
Hs-578T = experiment: Cytotoxicity against human HS-578T cells assessed as cell viability at 10 uM incubated for 48 hrs by sulforhodamine B assay relative to control
MDA-MB-231 = experiment: Cytotoxicity against human MDA-MB-231 cells assessed as cell viability at 10 uM incubated for 48 hrs by sulforhodamine B assay relative to control
DU-145 = experiment: Cytotoxicity against human DU-145 cells assessed as cell viability at 10 uM incubated for 48 hrs by sulforhodamine B assay relative to control
TK-10 = experiment: Cytotoxicity against human TK-10 cells assessed as cell viability at 10 uM incubated for 48 hrs by sulforhodamine B assay relative to control
SN12C = experiment: Cytotoxicity against human SN12C cells assessed as cell viability at 10 uM incubated for 48 hrs by sulforhodamine B assay relative to control
RXF 393 = experiment: Cytotoxicity against human RXF 393 cells assessed as cell viability at 10 uM incubated for 48 hrs by sulforhodamine B assay relative to control
CAKI-1 = experiment: Cytotoxicity against human CAKI-1 cells assessed as cell viability at 10 uM incubated for 48 hrs by sulforhodamine B assay relative to control
ACHN = experiment: Cytotoxicity against human ACHN cells assessed as cell viability at 10 uM incubated for 48 hrs by sulforhodamine B assay relative to control
786-0 = experiment: Cytotoxicity against human 786-0 cells assessed as cell viability at 10 uM incubated for 48 hrs by sulforhodamine B assay relative to control
SK-OV-3 = experiment: Cytotoxicity against human SK-OV-3 cells assessed as cell viability at 10 uM incubated for 48 hrs by sulforhodamine B assay relative to control
NCI/ADR-RES = experiment: Cytotoxicity against human NCI/ADR-RES cells assessed as cell viability at 10 uM incubated for 48 hrs by sulforhodamine B assay relative to control
OVCAR-8 = experiment: Cytotoxicity against human OVCAR-8 cells assessed as cell viability at 10 uM incubated for 48 hrs by sulforhodamine B assay relative to control
OVCAR-3 = experiment: Cytotoxicity against human OVCAR-3 cells assessed as cell viability at 10 uM incubated for 48 hrs by sulforhodamine B assay relative to control
UACC-62 = experiment: Cytotoxicity against human UACC-62 cells assessed as cell viability at 10 uM incubated for 48 hrs by sulforhodamine B assay relative to control
UACC-257 = experiment: Cytotoxicity against human UACC-257 cells assessed as cell viability at 10 uM incubated for 48 hrs by sulforhodamine B assay relative to control
SK-MEL-28 = experiment: Cytotoxicity against human SK-MEL-28 cells assessed as cell viability at 10 uM incubated for 48 hrs by sulforhodamine B assay relative to control
MDA-MB-435 = experiment: Cytotoxicity against human MDA-MB-435 cells assessed as cell viability at 10 uM incubated for 48 hrs by sulforhodamine B assay relative to control
M14 = experiment: Cytotoxicity against human M14 cells assessed as cell viability at 10 uM incubated for 48 hrs by sulforhodamine B assay relative to control
Malme-3M = experiment: Cytotoxicity against human Malme-3M cells assessed as cell viability at 10 uM incubated for 48 hrs by sulforhodamine B assay relative to control
CCRF-CEM = experiment: Cytotoxicity against human CCRF-CEM cells assessed as cell viability at 10 uM incubated for 48 hrs by sulforhodamine B assay relative to control
SR = experiment: Cytotoxicity against human SR cells assessed as cell viability at 10 uM incubated for 48 hrs by sulforhodamine B assay relative to control
HOP-92 = experiment: Cytotoxicity against human HOP-92 cells assessed as cell viability at 10 uM incubated for 48 hrs by sulforhodamine B assay relative to control
NCI-H226 = experiment: Cytotoxicity against human NCI-H226 cells assessed as cell viability at 10 uM incubated for 48 hrs by sulforhodamine B assay relative to control
NCI-H23 = experiment: Cytotoxicity against human NCI-H23 cells assessed as cell viability at 10 uM incubated for 48 hrs by sulforhodamine B assay relative to control
NCI-H322M = experiment: Cytotoxicity against human NCI-H322M cells assessed as cell viability at 10 uM incubated for 48 hrs by sulforhodamine B assay relative to control
NCI-H460 = experiment: Cytotoxicity against human NCI-H460 cells assessed as cell viability at 10 uM incubated for 48 hrs by sulforhodamine B assay relative to control
NCI-H522 = experiment: Cytotoxicity against human NCI-H522 cells assessed as cell viability at 10 uM incubated for 48 hrs by sulforhodamine B assay relative to control
COLO 205 = experiment: Cytotoxicity against human COLO 205 cells assessed as cell viability at 10 uM incubated for 48 hrs by sulforhodamine B assay relative to control
HCT-116 = experiment: Cytotoxicity against human HCT-116 cells assessed as cell viability at 10 uM incubated for 48 hrs by sulforhodamine B assay relative to control
HCT-15 = experiment: Cytotoxicity against human HCT-15 cells assessed as cell viability at 10 uM incubated for 48 hrs by sulforhodamine B assay relative to control
HCT-29 = experiment: Cytotoxicity against human […] cells assessed as cell viability at 10 uM incubated for 48 hrs by sulforhodamine B assay relative to control
KM12 = experiment: Cytotoxicity against human KM12 cells assessed as cell viability at 10 uM incubated for 48 hrs by sulforhodamine B assay relative to control
SW-620 = experiment: Cytotoxicity against human SW-620 cells assessed as cell viability at 10 uM incubated for 48 hrs by sulforhodamine B assay relative to control
SF-268 = experiment: Cytotoxicity against human SF-268 cells assessed as cell viability at 10 uM incubated for 48 hrs by sulforhodamine B assay relative to control
SF-295 = experiment: Cytotoxicity against human SF-295 cells assessed as cell viability at 10 uM incubated for 48 hrs by sulforhodamine B assay relative to control
SNB-75 = experiment: Cytotoxicity against human SNB-75 cells assessed as cell viability at 10 uM incubated for 48 hrs by sulforhodamine B assay relative to control
U-251 = experiment: Cytotoxicity against human U-251 cells assessed as cell viability at 10 uM incubated for 48 hrs by sulforhodamine B assay relative to control
LOX IMVI = experiment: Cytotoxicity against human LOX IMVI cells assessed as cell viability at 10 uM incubated for 48 hrs by sulforhodamine B assay relative to control

Row | SMILES | viability at 10 µM (MDA-MB-468) | viability at 10 µM (BT-549) | viability at 10 µM (Hs-578T) | viability at 10 µM (MDA-MB-231) | viability at 10 µM (DU-145) | viability at 10 µM (TK-10) | viability at 10 µM (SN12C) | viability at 10 µM (RXF 393) | viability at 10 µM (CAKI-1) | viability at 10 µM (ACHN) | viability at 10 µM (786-0) | viability at 10 µM (SK-OV-3) | viability at 10 µM (NCI/ADR-RES) | viability at 10 µM (OVCAR-8) | viability at 10 µM (OVCAR-3) | viability at 10 µM (UACC-62) | viability at 10 µM (UACC-257) | viability at 10 µM (SK-MEL-28) | viability at 10 µM (MDA-MB-435) | viability at 10 µM (M14) | also measured
1 | O=C(NCCNc1nccc(-c2c(-c3cccc(F)c3)nc3sccn23)n1)c1ccccc1 | 57.4% | 71.2% | 64.7% | 65.1% | 64.5% | 73% | 48.2% | 60.6% | 36.4% | 29.1% | 45.4% | 75.1% | 64.9% | 46.8% | 67.8% | 11.2% | 63.1% | 58.7% | 27% | 28.4% | viability at 10 µM (Malme-3M): 23.7%; viability at 10 µM (CCRF-CEM): 40.9%; viability at 10 µM (SR): 29.4%; viability at 10 µM (HOP-92): 82.2%; viability at 10 µM (NCI-H226): 44.3%; viability at 10 µM (NCI-H23): 64.9%; viability at 10 µM (NCI-H322M): 64.8%; viability at 10 µM (NCI-H460): 28.8%; viability at 10 µM (NCI-H522): 57.9%; viability at 10 µM (COLO 205): 10.4%; viability at 10 µM (HCT-116): 25.6%; viability at 10 µM (HCT-15): 34.6%; viability at 10 µM (HCT-29): 25.8%; viability at 10 µM (KM12): 56.6%; viability at 10 µM (SW-620): 52.3%; viability at 10 µM (SF-268): 58.8%; viability at 10 µM (SF-295): 71.4%; viability at 10 µM (SNB-75): 54.6%; viability at 10 µM (U-251): 59.4%; viability at 10 µM (LOX IMVI): 35.1%
2 | O=C(NCCNc1nccc(-c2c(-c3cccc(F)c3)nc3sccn23)n1)c1ccc(Cl)cc1 | 67.8% | 75.9% | 74.8% | 65.5% | 71% | 75.4% | 52.5% | 72.9% | 41.5% | 34.2% | 54.5% | 80.9% | 74.3% | 55.1% | 75.7% | 14.7% | 76% | 64.9% | 32% | 38.8% | viability at 10 µM (Malme-3M): 34.9%; viability at 10 µM (CCRF-CEM): 58.1%; viability at 10 µM (SR): 46.5%; viability at 10 µM (HOP-92): 87.1%; viability at 10 µM (NCI-H226): 51.2%; viability at 10 µM (NCI-H23): 73.5%; viability at 10 µM (NCI-H322M): 66.3%; viability at 10 µM (NCI-H460): 35.8%; viability at 10 µM (NCI-H522): 68.4%; viability at 10 µM (COLO 205): 29.8%; viability at 10 µM (HCT-116): 33%; viability at 10 µM (HCT-15): 40.1%; viability at 10 µM (HCT-29): 35.2%; viability at 10 µM (KM12): 62.8%; viability at 10 µM (SW-620): 65.2%; viability at 10 µM (SF-268): 67.9%; viability at 10 µM (SF-295): 73.8%; viability at 10 µM (SNB-75): 63.5%; viability at 10 µM (U-251): 66.1%; viability at 10 µM (LOX IMVI): 43.4%
3 | O=C(NCCNc1nccc(-c2c(-c3cccc(F)c3)nc3sccn23)n1)c1c(F)cccc1F | 54.3% | 56% | 53.3% | 81.2% | 50.1% | 66.6% | 45% | 57.1% | 34.5% | 26% | 44.2% | 64.1% | 56.9% | 44.2% | 56.8% | 10.3% | 54.7% | 51.1% | 17.4% | 29.3% | viability at 10 µM (Malme-3M): 31.6%; viability at 10 µM (CCRF-CEM): 42.8%; viability at 10 µM (SR): 26%; viability at 10 µM (HOP-92): 66.2%; viability at 10 µM (NCI-H226): 40.7%; viability at 10 µM (NCI-H23): 61.9%; viability at 10 µM (NCI-H322M): 57.5%; viability at 10 µM (NCI-H460): 24.8%; viability at 10 µM (NCI-H522): 42.8%; viability at 10 µM (COLO 205): 19.2%; viability at 10 µM (HCT-116): 24.9%; viability at 10 µM (HCT-15): 31.1%; viability at 10 µM (HCT-29): 20.4%; viability at 10 µM (KM12): 47.7%; viability at 10 µM (SW-620): 47.3%; viability at 10 µM (SF-268): 54.4%; viability at 10 µM (SF-295): 66.8%; viability at 10 µM (SNB-75): 59.5%; viability at 10 µM (U-251): 49.7%; viability at 10 µM (LOX IMVI): 32.4%

— ChEMBL document CHEMBL4665642, “Anticancer profile of newly synthesized BRAF inhibitors possess 5-(pyrimidin-4-yl)imidazo[2,1-b]thiazole scaffold” (Bioorg Med Chem, 2019)
